EP4413976B1, “A NEW VAMOROLONE PREPARATION EXHIBITING IMPROVED SOLUBILITY” (Santhera Pharmaceuticals (Schweiz) AG, priority 2023, dated 2024)
Values after ≈ are worked out from the molar mass of the structure shown.

Tests used:
[1] = kinetic solubility in FaSSIF (Pion µDissolution monitor); format: physicochemical; conditions: thermodynamic from solid, FaSSIF pH 6.5, 37° C
Experimental: SDD prototypes were evaluated for kinetic solubility in FaSSIF (Fasted State Simulated Intestinal Fluid, pH = 6.5) using the Pion µDissolution monitor with a tip path length of 2 mm. Data were collected using AUPro software over a period of 18 hours in 20 mL of each media, heated to 37 ± 2 °C. A stir speed of 250 rpm for the duration of the experiment.

[2] = solvent solubility screening of micronized Vamorolone (visual, solvent added in aliquots); format: physicochemical; conditions: for 200 µl / +100 µl: 10 mg Vamorolone; for 200 µl: dissolved after 200 µl; for +100 µl: dissolved after further 100 µl
Experimental: The solubility of micronized Vamorolone was assessed in several typical organic solvent systems suitable for use in spray drying.
A quantity of 10 mg of Vamorolone was dispensed into a 2 mL HPLC vial. The experimental design was to add the test solvent in aliquots, 200 µl and 100 µl. After each aliquot addition the sample was to be mixed on a vortex mixer for 1 minute and solubility assessed visually. Observations were also made after one hour of solvent addition.

[3] = solubility in aqueous solution at 37°C; format: physicochemical
[4] = test system: inflammatory states; conditions: multiple mouse models of inflammatory states, background statement; cited from earlier work
[5] = biological target: T1, glucocorticoid receptor (Homo sapiens, UniProt P04150); conditions: pre-clinical data, background statement; cited from earlier work
T1 sequence (P04150 1-777): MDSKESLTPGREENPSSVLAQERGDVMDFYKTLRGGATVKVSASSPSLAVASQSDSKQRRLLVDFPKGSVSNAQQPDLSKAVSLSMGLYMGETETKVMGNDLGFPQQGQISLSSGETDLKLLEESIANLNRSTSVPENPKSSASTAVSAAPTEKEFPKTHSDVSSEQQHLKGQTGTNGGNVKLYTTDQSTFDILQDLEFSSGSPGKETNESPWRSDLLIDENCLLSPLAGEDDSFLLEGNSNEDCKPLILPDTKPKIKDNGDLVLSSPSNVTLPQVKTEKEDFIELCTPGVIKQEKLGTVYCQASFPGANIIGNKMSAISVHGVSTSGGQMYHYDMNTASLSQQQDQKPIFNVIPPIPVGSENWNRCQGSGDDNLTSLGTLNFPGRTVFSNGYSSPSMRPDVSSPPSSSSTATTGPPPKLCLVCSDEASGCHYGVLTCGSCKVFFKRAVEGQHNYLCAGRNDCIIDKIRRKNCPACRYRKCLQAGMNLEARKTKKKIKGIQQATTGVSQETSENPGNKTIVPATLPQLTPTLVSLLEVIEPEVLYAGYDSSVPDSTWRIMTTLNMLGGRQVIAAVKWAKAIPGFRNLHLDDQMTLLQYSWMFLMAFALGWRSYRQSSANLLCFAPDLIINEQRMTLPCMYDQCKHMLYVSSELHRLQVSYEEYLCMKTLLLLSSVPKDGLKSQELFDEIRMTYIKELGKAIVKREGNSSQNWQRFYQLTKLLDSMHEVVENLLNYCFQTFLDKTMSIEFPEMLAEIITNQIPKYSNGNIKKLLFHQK

[6] = storage of cryo-milled amorphous Vamorolone; format: physicochemical; conditions: room temperature in a closed container

## C[C@@H]1C[C@H]2[C@@H]3CCC4=CC(=O)C=C[C@]4(C)C3=CC[C@]2(C)[C@@]1(O)C(=O)CO [Crystalline API, 17α,21-dihydroxy-16α-methylpregna-1,4,9(11)-triene-3,20-dione]
[1]; T=5 min
  solubility at 5 min: 46.4 µg/mL (≈ 130 µM)
[1]; T=30 min
  solubility at 30 min: 48.9 µg/mL (≈ 137 µM)
[1]; T=1 hour
  solubility at 1 h: 49.2 µg/mL (≈ 138 µM)
[1]; T=4 hour
  solubility at 4 h: 49 µg/mL (≈ 137 µM)
[1]; T=12 hour
  solubility at 12 h: 48.8 µg/mL (≈ 137 µM)
[1]; T=18 hour
  solubility at 18 h: 48.7 µg/mL (≈ 137 µM)

## C[C@@H]1C[C@H]2[C@@H]3CCC4=CC(=O)C=C[C@]4(C)C3=CC[C@]2(C)[C@@]1(O)C(=O)CO [Vamorolone, 17α,21-dihydroxy-16α-methylpregna-1,4,9(11)-triene-3,20-dione]
[2]; Acetone
  Observation 1 hour after solubility assessment: Hazy
  Observation after solubility assessment: Hazy
  200 µl: ×
  +100 µl: ×
[2]; DCM
  Observation 1 hour after solubility assessment: Clear
  Observation after solubility assessment: Clear
  200 µl: ×
  +100 µl: ✔
[2]; DCM (dichloromethane):methanol (1:1)
  clear solution: 50 mg/mL
[2]; DCM (dichloromethane):methanol (1:3)
  clear solution: 50 mg/mL
[2]; DCM:Methanol (1:1)
  Observation 1 hour after solubility assessment: Clear
  Observation after solubility assessment: Clear
  200 µl: ✔
[2]; DCM:Methanol (1:3)
  Observation 1 hour after solubility assessment: Clear
  Observation after solubility assessment: Clear
  200 µl: ✔
[2]; Ethanol
  Observation 1 hour after solubility assessment: Hazy
  Observation after solubility assessment: Hazy
  200 µl: ×
  +100 µl: ×
[2]; Ethyl Acetate
  Observation 1 hour after solubility assessment: Hazy
  Observation after solubility assessment: Hazy
  200 µl: ×
  +100 µl: ×
[2]; Isopropanol
  Observation 1 hour after solubility assessment: Hazy
  Observation after solubility assessment: Hazy
  200 µl: ×
  +100 µl: ×
[2]; Methanol
  Observation 1 hour after solubility assessment: Clear
  Observation after solubility assessment: Clear
  200 µl: ×
  +100 µl: ✔
[2]; Water
  Observation 1 hour after solubility assessment: Hazy
  Observation after solubility assessment: Hazy
  200 µl: ×
  +100 µl: ×
[3]
  solubility: ~40 µg/mL (≈ 112 µM)
[4]
  efficacy: efficacy similar to prednisolone
[5]
  binding to the glucocorticoid receptor: binds potently

## C[C@@H]1C[C@H]2[C@@H]3CCC4=CC(=O)C=C[C@]4(C)C3=CC[C@]2(C)[C@@]1(O)C(=O)CO [amorphous Vamorolone, 17α,21-dihydroxy-16α-methylpregna-1,4,9(11)-triene-3,20-dione]
[6]
  physical stability of the amorphous form: recrystallize within days
